Source: US11708348B2, “Protease inhibitors for treatment of coronavirus infections” (The Scripps Research Institute, priority 2021, dated 2023)

The compounds below were run on SARS-CoV-2 strain USA-WA1/2020 (assay: microbe, parasite or virus in culture). Conditions: Severe acute respiratory syndrome coronavirus 2, HeLa-ACE2, 24 h, HeLa-ACE2 cells, SARS-CoV-2 infection, 24 h; cells given as a bound; read-out: EC50, uM (Hela).
Assay type: cell-based

Compound | EC50 [µM]
O=C(N[C@@H](C[C@@H]1CCNC1=O)C(=O)COc1c(F)c(F)cc(F)c1F)C1CCN(C(=O)C2CCCC2)CC1 [Compound 27, l-(cyclopentane-carbonyl)-N-((S)-3-oxo-1-((S)-2-oxopyrrolidin-3-yl)-4-(2,3,5,6-tetrafluorophenoxy)butan-2-yl)piperidine-4-carboxamide] | > 1
Cc1ccccc1NC(=O)C(=O)N(C)[C@@H](CC(C)C)C(=O)N[C@@H](C[C@@H]1CCNC1=O)C(=O)COc1c(F)c(F)cc(F)c1F [Compound 105, N1-methyl-N1-((S)-4-methyl-1-oxo-1-(((S)-3-oxo-1-((S)-2-oxopyrrolidin-3-yl)-4-(2,3,5,6-tetrafluorophenoxy)butan-2-yl)amino)pentan-2-yl)-N2-(o-tolyl)oxalamide] | > 1

Same assay, conditions: Severe acute respiratory syndrome coronavirus 2, HeLa-ACE2, 24 h, HeLa-ACE2 cells, SARS-CoV-2 infection, 24 h; class symbols; read-out: EC50, uM (Hela)

Compound | EC50 [µM]
CC(C)C[C@H](NC(=O)C(=O)NC1CCCCC1)C(=O)N[C@@H](C[C@@H]1CCNC1=O)C(=O)COc1c(F)c(F)cc(F)c1F [Compound 69, N1-cyclohexyl-N2-((S)-4-methyl-1-oxo-1-(((S)-3-oxo-1-((S)-2-oxopyrrolidin-3-yl)-4-(2,3,5,6-tetra-fluorophenoxy)butan-2-yl)amino)pentan-2-yl)oxalamide] | 0.05 to 0.2
CC(C)(C)c1ccccc1NC(=O)C(=O)N[C@@H](CC1CCCCC1)C(=O)N[C@@H](C[C@@H]1CCNC1=O)C(=O)COc1c(F)c(F)cc(F)c1F [Compound 117, Nl-(2-(tert-butyl)phenyl)-N2-((S)-3-cyclohexyl-1-oxo-1-(((S)-3-oxo-1-((S)-2-oxopyrrolidin-3-yl)-4-(2,3,5,6-tetrafluorophenoxy)butan-2-yl)amino)propan-2-yl)oxalamide] | < 0.05
CC[C@@H](O)C(=O)N1C[C@@H]2CCC[C@@H]2[C@H]1C(=O)N[C@@H](C[C@@H]1CCNC1=O)C(=O)COC(F)(F)F [Compound 377, (1S,3aR,6aS)-2-((R)-2-hydroxybutanoyl)-N-((S)-3-oxo-1-((S)-2-oxopyrrolidin-3-yl)-4-(trifluoromethoxy)butan-2-yl)octahydrocyclo-penta[c]pyrrole-1-carboxamide] | 0.05 to 0.2
CC(C)C[C@H](NC(=O)[C@H]1CCCO1)C(=O)N[C@@H](C[C@@H]1CCNC1=O)C(=O)COc1c(F)c(F)cc(F)c1F [Compound 26, (R)-N-((S)-4-methyl-1-oxo-1-(((S)-3-oxo-1-((S)-2-oxopyrrolidin-3-yl)-4-(2,3,5,6-tetrafluorophenoxy)butan-2-yl)amino)pentan-2-yl)tetrahydrofuran-2-carboxamide] | 0.2 to 0.5
O=C1NCC[C@H]1C[C@H](NC(=O)[C@@H]1CC2(CC2)CN1C(=O)C(O)CC(F)(F)F)C(=O)COC(F)(F)F (stereo partly drawn) [Compound 390, (6S)-N-((S)-3-oxo-1-((S)-2-oxopyrrolidin-3-yl)-4-(trifluoromethoxy)butan-2-yl)-5-(4,4,4-trifluoro-2-hydroxybutanoyl)-5-azaspiro[2.4]heptane-6-carboxamide] | 0.05 to 0.2
O=C(Nc1ccccc1F)C(=O)N1[C@@H]2C[C@@H]2C[C@H]1C(=O)N[C@@H](C[C@@H]1CCNC1=O)C(=O)COC(F)(F)F [Compound 265, (1R,S 5R)-2-(2-((2-fluorophenyl)amino)-2-oxoacetyl)-N-((S)-3-oxo-1-((S)-2-oxopyrrolidin-3-yl)-4-(trifluoromethoxy)butan-2-yl)-2-azabicyclo-[3.1.0]-hexane-3-carboxamide] | 0.05 to 0.2
O=C(Nc1ccccc1F)C(=O)N[C@@H](Cc1cccc(F)c1)C(=O)N[C@@H](C[C@@H]1CCNC1=O)C(=O)COC(F)(F)F [Compound 243, N1-(2-fluorophenyl)-N2-((S)-3-(3-fluorophenyl)-1-oxo-1-(((S)-3-oxo-1-((S)-2-oxopyrrolidin-3-yl)-4-(trifluoromethoxy)butan-2-yl)amino)propan-2-yl)oxalamide] | < 0.05
CC(C)C[C@H](NC(=O)C(=O)NC1(CF)CC1)C(=O)N[C@@H](C[C@@H]1CCNC1=O)C(=O)COC(F)(F)F [Compound 254, Nl-(l-(fluoromethyl)-cyclopropyl)-N2-((S)-4-methyl-1-oxo-1-(((S)-3-oxo-1-((S)-2-oxopyrrolidin-3-yl)-4-(trifluoromethoxy)butan-2-yl)amino)pentan-2-yl)oxalamide] | < 0.05
CC(C)C[C@H](NC(=O)C(=O)Nc1ccccc1F)C(=O)N[C@@H](C[C@@H]1CCNC1=O)C(=O)COc1c(F)cc(F)cc1F [Compound 131, N1-(2-fluorophenyl)-N2-((S)-4-methyl-1-oxo-1-(((S)-3-oxo-1-((S)-2-oxopyrrolidin-3-yl)-4-(2,4,6-trifluorophenoxy)butan-2-yl)amino)pentan-2-yl)oxalamide] | 0.2 to 0.5
CC1(NC(=O)C(=O)N[C@@H](Cc2cccc(F)c2)C(=O)N[C@@H](C[C@@H]2CCNC2=O)C(=O)COC(F)(F)F)CC1 [Compound 215, N1-((S)-3-(3-fluorophenyl)-1-oxo-1-(((S)-3-oxo-1-((S)-2-oxopyrrolidin-3-yl)-4-(trifluoromethoxy)butan-2-yl)amino)propan-2-yl)-N2-(1-methylcyclopropyl)-oxalamide] | < 0.05
CC(C)C[C@H](NC(=O)c1cc2cc(F)ccc2[nH]1)C(=O)N[C@@H](C[C@@H]1CCNC1=O)C(=O)COc1c(F)c(F)cc(F)c1F [Compound 16, 5-fluoro-N-((S)-4-methyl-1-oxo-1-(((S)-3-oxo-1-((S)-2-oxopyrrolidin-3-yl)-4-(2,3,5,6-tetrafluorophenoxy)butan-2-yl)amino)pentan-2-yl)-1H-indole-2-carboxamide] | 0.05 to 0.2

Same assay, conditions: Severe acute respiratory syndrome coronavirus 2, HeLa-ACE2, 24 h, HeLa-ACE2 cells, SARS-CoV-2 infection, 24 h; given as bound; read-out: EC50, uM (Hela)

Compound | EC50 [µM]
COC(=O)C(=O)N1C[C@@H]2CCC[C@@H]2[C@H]1C(=O)N[C@@H](C[C@@H]1CCNC1=O)C(=O)COC(F)(F)F [Compound 569, methyl 2-oxo-2-((1S,3aR,6aS)-1-(((S)-3-oxo-1-((S)-2-oxopyrrolidin-3-yl)-4-(trifluoromethoxy)butan-2-yl)carbamoyl)-hexahydrocyclo-penta[c]-pyrrol-2(1H)-yl)acetate] | > 1

Same assay, conditions: Severe acute respiratory syndrome coronavirus 2, HeLa-ACE2, 24 h, HeLa-ACE2 cells, SARS-CoV-2 infection, 24 h; read-out: EC50, uM (Hela)

Compound | EC50 [µM]
O=C1NCC[C@H]1C[C@H](NC(=O)[C@@H]1[C@H]2CCC[C@H]2CN1C(=O)C(=O)N1CCOCC1)C(=O)COC(F)(F)F [Compound 544, (1S,3aR,6aS)-2-(2-morpholino-2-oxoacetyl)-N-((S)-3-oxo-1-((S)-2-oxopyrrolidin-3-yl)-4-(trifluoromethoxy)butan-2-yl)octahydrocyclo-penta[c]pyrrole-1-carboxamide] | 0.5 to 1
O=C(N[C@@H](C[C@@H]1CCNC1=O)C(=O)COC(F)(F)F)C1CCCCCN1C(=O)[C@@H](O)c1ccccc1 (stereo partly drawn) [Compound 768, l-((S)-2-hydroxy-2-phenylacetyl)-N-((S)-3-oxo-1-((S)-2-oxopyrrolidin-3-yl)-4-(trifluoromethoxy)butan-2-yl)azepane-2-carboxamide] | 0.05 to 0.2
CC(C)CC(C(=O)N[C@@H](C[C@@H]1CCNC1=O)C(=O)COC(F)(F)F)n1cc(C(=O)NC(C)(C)C)nn1 (stereo partly drawn) [Compound 592, N-(tert-butyl)-1-(4-methyl-1-oxo-1-(((S)-3-oxo-1-((S)-2-oxopyrrolidin-3-yl)-4-(trifluoromethoxy)butan-2-yl)amino)pentan-2-yl)-1H-1,2,3-triazole-4-carboxamide] | 0.05 to 0.2
CC(C)C[C@@H](O)C(=O)N1CC(F)(F)C[C@H]1C(=O)N[C@@H](C[C@@H]1CCNC1=O)C(=O)COC(F)(F)F [Compound 751, (S)-4,4-difluoro-1-((R)-2-hydroxy-4-methylpentanoyl)-N-((S)-3-oxo-1-((S)-2-oxopyrrolidin-3-yl)-4-(trifluoromethoxy)butan-2-yl)pyrrolidine-2-carboxamide] | 0.05 to 0.2
CC(C)C[C@@H](O)C(=O)N1CC2(CCC2)CC1C(=O)N[C@@H](C[C@@H]1CCNC1=O)C(=O)COC(F)(F)F (stereo partly drawn) [Compound 770, 6-((R)-2-hydroxy-4-methylpentanoyl)-N-((S)-3-oxo-1-((S)-2-oxopyrrolidin-3-yl)-4-(trifluoromethoxy)butan-2-yl)-6-azaspiro[3.4]octane-7-carboxamide] | 0.05 to 0.2
CC(C)C[C@H](NC(=O)C1CC2(CC2)CO1)C(=O)N[C@@H](C[C@@H]1CCNC1=O)C(=O)COC(F)(F)F (stereo partly drawn) [Compound 789, N-((S)-4-methyl-1-oxo-1-(((S)-3-oxo-1-((S)-2-oxopyrrolidin-3-yl)-4-(trifluoromethoxy)butan-2-yl)amino)pentan-2-yl)-5-oxaspiro[2.4]heptane-6-carboxamide] | < 0.05
O=C(Nc1ccccc1F)C(=O)N1CC[C@H]1C(=O)N[C@@H](C[C@@H]1CCNC1=O)C(=O)COC(F)(F)F [Compound 583, (S)-1-(2-((2-fluoro-phenyl)amino)-2-oxoacetyl)-N-((S)-3-oxo-1-((S)-2-oxopyrrolidin-3-yl)-4-(trifluoromethoxy)butan-2-yl)azetidine-2-carboxamide] | 0.05 to 0.2
CC(C)[C@H](O)[C@@H](O)C(=O)N1CC2(CC2)C[C@H]1C(=O)N[C@@H](C[C@@H]1CCNC1=O)C(=O)COC(F)(F)F [Compound 726, (S)-5-((2R,3S)-2,3-dihydroxy-4-methylpentanoyl)-N-((S)-3-oxo-1-((S)-2-oxopyrrolidin-3-yl)-4-(trifluoromethoxy)butan-2-yl)-5-azaspiro[2.4]heptane-6-carboxamide] | 0.2 to 0.5
O=C1NCC[C@H]1C[C@H](NC(=O)[C@@H]1CC2(CC2)CN1C(=O)[C@H](O)c1ccccc1)C(=O)COC(F)(F)F [Compound 412, (S)-5-((R)-2-hydroxy-2-phenylacetyl)-N-((S)-3-oxo-1-((S)-2-oxopyrrolidin-3-yl)-4-(trifluoromethoxy)butan-2-yl)-5-azaspiro[2.4]-heptane-6-carboxamide] | 0.05 to 0.2
CC(C)C[C@@H](OC(=O)C(C)C)C(=O)N1CC2(CC2)C[C@H]1C(=O)N[C@@H](C[C@@H]1CCNC1=O)C(=O)COC(F)(F)F [Compound 631, (R)-4-methyl-1-oxo-1-((S)-6-(((S)-3-oxo-l-((S)-2-oxopyrrolidin-3-yl)-4-(trifluoromethoxy)butan-2-yl)carbamoyl)-5-azaspiro[2.4]heptan-5-yl)pentan-2-yl isobutyrate] | 0.2 to 0.5
